The CheMixHub ionic liquid set
Several values for one entry are separate records, joined by “and”; a condition that tells them apart may be missing. Equal values may be shown once.

Test: xn = mol fraction of the nth substance listed

CC1CC(=O)O1 (configuration not stated) + CCCC[n+]1ccn(C)c1.O=S(=O)([N-]S(=O)(=O)C(F)(F)F)C(F)(F)F
electrical conductivity [S/m], 100 kPa, frequency 0.01 MHz
Details | 293.15 K | 298.15 K | 303.15 K | 308.15 K | 313.15 K | 318.15 K | 323.15 K
x2 = 0.0493 | 0.874 | 0.942 | 1.02 | 1.1 | 1.2 | 1.29 | 1.38
x2 = 0.1001 | 1.1 | 1.22 | 1.34 | 1.48 | 1.62 | 1.74 | 1.89
x2 = 0.1526 | 1.21 | 1.34 | 1.49 | 1.64 | 1.8 | 1.94 | 2.12
x2 = 0.2001 | 1.2 | 1.32 | 1.47 | 1.62 | 1.79 | 1.97 | 2.16
x2 = 0.3001 | 1.02 | 1.15 | 1.28 | 1.42 | 1.58 | 1.76 | 1.96
x2 = 0.4013 | 0.782 | 0.883 | 1 | 1.13 | 1.26 | 1.43 | 1.61
x2 = 0.5004 | 0.619 | 0.701 | 0.804 | 0.91 | 1.02 | 1.16 | 1.3
x2 = 0.5995 | 0.505 | 0.58 | 0.67 | 0.754 | 0.857 | 0.976 | 1.1
x2 = 0.6929 | 0.437 | 0.504 | 0.584 | 0.665 | 0.758 | 0.865 | 0.992
x2 = 0.814 | 0.39 | 0.451 | 0.521 | 0.592 | 0.677 | 0.775 | 0.886
x2 = 0.9001 | 0.353 | 0.417 | 0.484 | 0.557 | 0.645 | 0.74 | 0.837

O + CCCCCCCCCCCCCC[n+]1ccccc1.O=C([O-])C(O)c1ccccc1 + NCC(=O)O
101 kPa, x2 = 0, x3 = 0
Details | electrical conductivity [S/m]
293.15 K | 0.00012
298.15 K | 0.00015
303.15 K | 0.00016
308.15 K | 0.00017
313.15 K | 0.00019

O + CCCCCCCCCCCCCCCC[n+]1ccccc1.[Cl-]
Details | electrical conductivity [S/m]
308.15 K, 101 kPa, x2 = 0 | 6.7e-05

CCCCCCCCCCCC[N+](C)(C)CC.[Br-] + O
viscosity [mPa·s], 101 kPa
Details | x1 = 3.604e-05 | x1 = 9.009e-05 | x1 = 0.0001441 | x1 = 0.0001802 | x1 = 0.0002702 | x1 = 0.0003603 | x1 = 0.0004503 | x1 = 0.0005403
298.15 K | 0.895 | 0.903 | 0.913 | 0.916 | 0.929 | 0.938 | 0.947 | 0.956
303.15 K | 0.796 | 0.807 | 0.816 | 0.822 | 0.831 | 0.839 | 0.847 | 0.854
308.15 K | 0.714 | 0.726 | 0.735 | 0.74 | 0.75 | 0.758 | 0.765 | 0.773
313.15 K | 0.647 | 0.658 | 0.666 | 0.673 | 0.682 | 0.688 | 0.693 | 0.699
318.15 K | 0.587 | 0.595 | 0.605 | 0.61 | 0.619 | 0.623 | 0.628 | 0.632

CCCC[n+]1ccn(C)c1.F[B-](F)(F)F + CS(C)=O
100 kPa
Details | electrical conductivity, 298.15 K [S/m] | viscosity, 298.15 K | viscosity, 303.15 K [mPa·s] | viscosity, 308.15 K [mPa·s] | viscosity, 313.15 K [mPa·s]
x1 = 0.0192 | – | 3.4 mPa·s | 2.9 | 2.46 | 2.17
x1 = 0.0447 | – | 5.06 mPa·s | 4.12 | 3.28 | 2.8
x1 = 0.0661 | – | 6.29 mPa·s | 5.13 | 3.85 | 3.2
x1 = 0.0722 | 0.974 | 3.144 mPa·s | – | – | –
x1 = 0.0974 | – | 8.27 mPa·s | 6.5 | 4.89 | 4.03
x1 = 0.1622 | – | 12.79 mPa·s | 9.68 | 6.72 | 5.22
x1 = 0.1764 | – | 5.489 mPa·s | – | – | –
x1 = 0.2138 | – | 16.68 mPa·s | 12.57 | 8.83 | 6.86
x1 = 0.2145 | 1.016 | 6.836 mPa·s | – | – | –
x1 = 0.2889 | – | 22.73 mPa·s | 17.15 | 11.9 | 9.21
x1 = 0.3225 | 0.831 | 11.38 mPa·s | – | – | –
x1 = 0.3735 | – | 30.07 mPa·s | 22.87 | 15.97 | 12.58
x1 = 0.4189 | 0.672 | 17.2 mPa·s | – | – | –
x1 = 0.4431 | – | 36.58 mPa·s | 27.97 | 19.78 | 15.65
x1 = 0.5247 | – | 44.65 mPa·s | 34.44 | 24.63 | 19.75
x1 = 0.607 | 0.436 | 34 mPa·s | – | – | –
x1 = 0.6172 | – | 54.3 mPa·s | 42.3 | 30.73 | 24.85
x1 = 0.6557 | 0.352 | 38.87 mPa·s | – | – | –
x1 = 0.6772 | – | 61 mPa·s | 47.6 | 34.97 | 28.49
x1 = 0.7513 | – | 69.5 mPa·s | 54.7 | 40.59 | 33.35
x1 = 0.7958 | – | 75 mPa·s | 59.2 | 44.05 | 36.37
x1 = 0.8283 | 0.284 | – | – | – | –
x1 = 0.8516 | – | 81.9 mPa·s | – | 48.7 | 40.3
x1 = 0.8954 | – | 87.5 mPa·s | 69.6 | 52.5 | 43.72
x1 = 0.9155 | – | 82.7 mPa·s | – | – | –
x1 = 0.9373 | – | 92.9 mPa·s | 74.1 | 56.2 | 46.9
x1 = 0.9687 | – | 97.1 mPa·s | 77.5 | 59 | 49.4
x1 = 1 | 0.243 | 101 mPa·s and 104.7 mPa·s | 80.7 | 61.5 | 51.5

CC[NH+](C)CC.O=S(=O)([O-])C(F)(F)F + O + CC[NH+](C)CC.CS(=O)(=O)[O-]
viscosity [mPa·s], 101 kPa
Details | x2 = 0.027, x1 = 0.973 | x2 = 0.05, x1 = 0.717 | x2 = 0.07, x1 = 0.498 | x2 = 0.089, x1 = 0.309 | x2 = 0.107, x1 = 0.143 | x2 = 0.114, x1 = 0.069
293.15 K | 53.3 | 78.1 | 101.7 | 116.8 | 125.2 | 128.3
313.15 K | 25.8 | 34 | 40.9 | 44.4 | 45.8 | 46.1
333.15 K | 14.6 | 17.9 | 20.4 | 21.4 | 21.6 | 21.7
353.15 K | 9.18 | 10.7 | 11.74 | 12.07 | 12.03 | 12.06

CCCC[n+]1ccn(C)c1.F[B-](F)(F)F + NCCO + O
viscosity [mPa·s], 101 kPa
Details | 293.15 K | 298.15 K | 303.15 K | 308.15 K | 313.15 K | 318.15 K | 323.15 K | 328.15 K | 333.15 K
x1 = 0.0337, x2 = 0.2024 | 7 | 5.5 | 4.5 | 3.8 | – | – | – | – | –
x1 = 0.0792, x2 = 0.1188 | 6.1 | 4.7 | 4 | 3.4 | – | – | – | – | –
x1 = 0.0977, x2 = 0.2442 | – | – | 7.3 | 6 | 5.1 | 4.3 | 3.7 | – | –
x1 = 0.1701, x2 = 0.3402 | – | – | – | 9 | 7.6 | 6.5 | 5.5 | 4.7 | 4.1
